Test results published in patent US10231956B2, “3-(1H-pyrrolo[3,2-C]pyridin-2-YL)-1 H-pyrazolo[4,3-B]pyridines and therapeutic uses thereof” (Samumed, LLC, priority 2015, dated 2019).

Key:
Format in all cases: cell-based
[1] = system: Wnt activity (Sp5-Luc reporter, SW480 colon carcinoma cells); experiment: Sp5-Luc reporter gene screening assay for Wnt activity in SW480 cells; details: Homo sapiens; for EC50: luminescence, overnight incubation; for inhibition at 10 µM: given for EC50 >10 μM, read-out: percent inhibition at 10 μM
Excerpt: The screening assay for Wnt activity is described as follows. Reporter cell lines can be generated by stably transducing cancer cell lines (e.g., colon cancer) or primary cells (e.g., IEC-6 intestinal cells) with a lentiviral construct that includes a Wnt-responsive promoter driving expression of the firefly luciferase gene.
SW480 colon carcinoma cells were transduced with a lentiviral vector expressing luciferase with a human Sp5 promoter consisting of a sequence of eight TCF/LEF binding sites. SW480 cells stably expressing the Sp5-Luc reporter gene and a hygromycin resistance gene were selected by treatment with 150 μg/mL of hygromycin for 7 days. These stably transduced SW480 cells were expanded in cell culture and used for all further screening activities. Each compound was dissolved in DMSO as a 10 mM stock and used to prepare compound source plates. Serial dilution (1:3, 10-point dose-response curves starting from 10 μM) and compound transfer was performed using the ECHO 550 (Labcyte, Sunnyvale, Calif.) into 384-well white solid bottom assay plates (Greiner Bio-One) with appropriate DMSO backfill for a final DMSO concentration of 0.1%. For Sp5-Luc reporter gene assays, the cells were plated at 4,000 cells/well in 384-well plates with medium containing 1% fetal bovine serum and incubated overnight at 37° C. and 5% CO2. Following incubation, 20 μl of BrightGlo luminescence reagent (Promega) was added to each well of the 384-well assay plates. The plates were placed on an orbital shaker for 2 min and then luminescence was quantified using the Envision (Perkin Elmer) plate reader. Readings were normalized to DMSO only treated cells, and normalized activities were utilized for EC50 calculations using the dose-response log (inhibitor) vs. response-variable slope (four parameters) nonlinear regression feature available in GraphPad Prism 5.0 (or Dotmatics). For EC50 of >10 μM, the percent inhibition at 10 μM is provided.

[2] = system: primary human mesenchymal stem cells (hMSCs); experiment: Induction of chondrogenesis in primary human mesenchymal stem cells (nodule count); details: 144 h, 6 days; for Emax: TGF-β3 10 ng/mL as positive control, read-out: Max. Activity as % TGF-β3 activity; for EC50: concentration required to induce 50% levels of chondrogenesis vs TGF-β3, read-out: Conc (nM) of 50% TGF-β3 activity
Description: Representative compounds were screened using primary human mesenchymal stem cells (hMSCs) to determine their ability to induce chondrogenesis (process by which cartilage is developed).
Human Mesenchymal Stem Cell Culture: Primary human mesenchymal stem cells (hMSCs) were purchased from Lonza (Walkersville, Md.) and expanded in Mesenchymal Stem Cell Growth Media (Lonza). Cells between passage 3 and 6 were used for the experiments.
Compound Screening: Each compound was dissolved in DMSO as a 10 mM stock and used to prepare compound source plates. Serial dilution (1:3, 6-point dose-response curves from 2700 nM to 10 nM) and compound transfer was performed using the ECHO 550 (Labcyte, Sunnyvale, Calif.) into 96-well clear bottom assay plates (Greiner Bio-One) with appropriate DMSO backfill for a final DMSO concentration of 0.03%. hMSCs were plated at 20,000 cells/well in 250 μL/well Incomplete Chondrogenic Induction Medium (Lonza; DMEM, dexamethasone, ascorbate, insulin-transferrin-selenium [ITS supplement], gentamycin-amphotericin [GA-1000], sodium pyruvate, proline and L-glutamine). TGF-β3 (10 ng/mL) was used as a positive control for differentiation while negative control wells were treated with 75 nL DMSO for normalization and calculating EC50 values. Cells were incubated at 37° C. and 5% CO2 for 6 days. To image chondrogenic nodules, the cells were fixed using 4% formaldehyde (Electron Microscopy Sciences), and stained with 2 μg/mL Rhodamine B (Sigma-Aldrich) and 20 μM Nile Red (Sigma-Aldrich) [Johnson K., et. al, A Stem Cell-Based Approach to Cartilage Repair, Science, (2012), 336(6082), 717-721]. The nodules imaged (4 images per well at 4× magnification) by excitation at 531 nm and emission at 625 nm and quantified using the CellInsight CX5 (Thermo Scientific). Number of nodules in each well was normalized to the average of 3 DMSO treated wells on the same plate using Excel (Microsoft Inc.). The normalized averages (fold change over DMSO) of 3 replicate wells for each compound concentration were calculated. Due to solubility limitations of some of the compounds, curve fitting was incomplete leading to inaccurate EC50 determinations.
Using TGF-β3 as a positive control, the concentration of representative compounds required to induce 50% levels of chondrogenesis is reported. In addition, the maximum activity of each compound and the respective dose that each compound reached maximum chondrogenesis activity is reported.

IL-6 = IL-6 inhibition in LPS-stimulated THP-1 cells (HTRF); details: Homo sapiens; for EC50: LPS 500 ng/mL, 22 hours, IL6 HTRF; for inhibition at 10 µM: given for EC50 >10 μM, LPS, IL6, 10 μM, read-out: percent inhibition at 10 μM
Description: Human Monocyte Cell Culture: Human monocyte cell line (THP-1 cells; Catalog # TIB-202, ATCC, Manassas, Va.) were cultured in Roswell Park Memorial Institute (RPMI) 1640 Medium (Catalog #21870-100, Buffalo, N.Y.) with 1% L-glutamine, 1% HEPES, 1% Sodium Pyruvate, 2% Sodium Bicarbonate supplemented with 100 units/mL penicillin, 50 μg/mL streptomycin, 2-mercaptoethanol (0.05 mM) [basal medium] and 10% fetal bovine serum (Catalog #16140089, Life Technologies, Carlsbad, Calif.) at 37° C. and 5% CO2.
Compound Screening: THP-1 cells were cultured in basal media with 1% FBS for 24 hours before the start of the assay. Each compound was dissolved in DMSO as a 10 mM stock and used to prepare compound source plates. Serial dilution (1:3, 10-point dose-response curves starting from 1 μM) and compound transfer was performed using the ECHO 550 (Labcyte, Sunnyvale, Calif.) into 384-well white low volume assay plates (Greiner Bio-One) with appropriate DMSO backfill for a final DMSO concentration of 0.1%. THP-1 cells were plated at 5000 cells/well in the 384-well plates and incubated at 37° C. for 2 h. 500 ng/mL of LPS was added after 2 hours and cells were incubated for another 22 hours at 37° C. Plates were spun in a centrifuge for 1 minute at 10,000 rpm and a mixture of anti-IL6 XL665, and anti-IL6 Cryptate diluted in reconstitution buffer (Cisbio Inc.) was added to each well. Following incubation for 3 hrs at room temperature, Homogeneous Time-Resolved Fluorescence (HTRF) was measured using the Envision (Perkin Elmer) at 665 nm and […]. The ratio of fluorescence at 665 nm to 620 nm was used as a readout for IL6 quantification. All samples were processed in duplicate. Readings were normalized to DMSO treated cells and normalized activities were utilized for EC50 calculations using the dose-response log (inhibitor) vs. response-variable slope (four parameters) nonlinear regression feature available in GraphPad Prism 5.0 (or Dotmatics). For EC50 of >10 μM, the percent inhibition at 10 μM is provided.

| SMILES | EC50 [1] [nM] | EC50 (IL-6) [nM] | EC50 [2] [nM] | Emax [2] [%] | inhibition at 10 µM (IL-6) [%] | inhibition at 10 µM [1] [%] |
| --- | --- | --- | --- | --- | --- | --- |
| Fc1cccc(-c2nccc3[nH]c(-c4n[nH]c5ccc(-c6cccnc6)nc45)cc23)c1 [Compound 4, 3-(4-(3-Fluorophenyl)-1H-pyrrolo[3,2-c]pyridin-2-yl)-5-(pyridin-3-yl)-1H-pyrazolo[4,3-b]pyridine] | 1490 | 51 | – | 45 | – | – |
| CN(C)c1cncc(-c2ccc3[nH]nc(-c4cc5c(-c6cccc(F)c6)nccc5[nH]4)c3n2)c1 [Compound 7, 5-(3-(4-(3-Fluorophenyl)-1H-pyrrolo[3,2-c]pyridin-2-yl)-1H-pyrazolo[4,3-b]pyridin-5-yl)-N,N-dimethylpyridin-3-amine] | 746 | 104 | 2700 | 153 | – | – |
| Fc1ccc(-c2nccc3[nH]c(-c4n[nH]c5ccc(-c6cncc(CN7CCC(F)(F)C7)c6)nc45)cc23)cc1 [Compound 54, 5-(5-((3,3-Difluoropyrrolidin-1-yl)methyl)pyridin-3-yl)-3-(4-(4-fluorophenyl)-1H-pyrrolo[3,2-c]pyridin-2-yl)-1H-pyrazolo[4,3-b]pyridine] | 599 | 121 | 900 | 106 | – | – |
| Fc1ccccc1-c1nccc2[nH]c(-c3n[nH]c4ccc(-c5cncnc5)nc34)cc12 [Compound 83, 3-(4-(2-Fluorophenyl)-1H-pyrrolo[3,2-c]pyridin-2-yl)-5-(pyrimidin-5-yl)-1H-pyrazolo[4,3-b]pyridine] | > 10000 | 61 | – | – | – | 2.1 |
| Nc1cncc(-c2ccc3[nH]nc(-c4cc5c(-c6ccncc6)nccc5[nH]4)c3n2)c1 [Compound 115, 5-(3-(4-(Pyridin-4-yl)-1H-pyrrolo[3,2-c]pyridin-2-yl)-1H-pyrazolo[4,3-b]pyridin-5-yl)pyridin-3-amine] | 452 | 421 | – | – | – | – |
| CN1CCN(c2nccc3[nH]c(-c4n[nH]c5ccc(-c6cncc(NC(=O)c7ccccc7)c6)nc45)cc23)CC1 [Compound 235, N-(5-(3-(4-(4-Methylpiperazin-1l-yl)-1H-pyrrolo[3,2-c]pyridin-2-yl)-1H-pyrazolo[4,3-b]pyridin-5-yl)pyridin-3-yl)benzamide] | > 10000 | 1000 | – | – | – | 49.1 |

The next lines start with results.

| EC50 [1] [nM] | EC50 (IL-6) [nM] | EC50 [2] [nM] | SMILES | Emax [2] [%] | inhibition at 10 µM (IL-6) [%] | inhibition at 10 µM [1] [%] |
| --- | --- | --- | --- | --- | --- | --- |
| 3750 | 9360 | – | Fc1cccc(-c2nccc3[nH]c(-c4n[nH]c5ccc(-c6cncc(CN7CCCCC7)c6)nc45)cc23)c1 [Compound 15, 3-(4-(3-Fluorophenyl)-1H-pyrrolo[3,2-c]pyridin-2-yl)-5-(5-(piperidin-1-ylmethyl)pyridin-3-yl)-1H-pyrazolo[4,3-b]pyridine] | 48 | – | – |
| 1280 | > 10000 | – | O=C(Nc1cncc(-c2ccc3[nH]nc(-c4cc5c(-c6cccc(F)c6)nccc5[nH]4)c3n2)c1)C1CCCCC1 [Compound 23, N-(5-(3-(4-(3-Fluorophenyl)-1H-pyrrolo[3,2-c]pyridin-2-yl)-1H-pyrazolo [4,3-b]pyridin-5-yl)pyridin-3-yl)cyclohexanecarboxamide] | – | 10.6 | – |
| > 10000 | > 10000 | – | Cc1ccncc1-c1ccc2[nH]nc(-c3cc4c(-c5ccc(F)cc5)nccc4[nH]3)c2n1 [Compound 33, 3-(4-(4-Fluorophenyl)-1H-pyrrolo[3,2-c]pyridin-2-yl)-5-(4-methylpyridin-3-yl)-1H-pyrazolo[4,3-b]pyridine] | – | 31.3 | 37.3 |
| 692 | > 10000 | – | O=C(Nc1cncc(-c2ccc3[nH]nc(-c4cc5c(-c6ccc(F)cc6)nccc5[nH]4)c3n2)c1)c1ccccc1 [Compound 39, N-(5-(3-(4-(4-Fluorophenyl)-1H-pyrrolo[3,2-c]pyridin-2-yl)-1H-pyrazolo [4,3-b]pyridin-5-yl)pyridin-3-yl)benzamide] | – | 3.3 | – |
| 3940 | 3140 | – | CC(C)CC(=O)Nc1cncc(-c2ccc3[nH]nc(-c4cc5c(N6CCN(C)CC6)nccc5[nH]4)c3n2)c1 [Compound 226, 3-Methyl-N-(5-(3-(4-(4-methylpiperazin-1-yl)-1H-pyrrolo[3,2-c]pyridin-2-yl)-1H-pyrazolo[4,3-b]pyridin-5-yl)pyridin-3-yl)butanamide] | – | – | – |
| > 10000 | > 10000 | – | c1csc(-c2nccc3[nH]c(-c4n[nH]c5ccc(-c6ccncc6)nc45)cc23)c1 [Compound 354, 5-(Pyridin-4-yl)-3-(4-(thiophen-2-yl)-1H-pyrrolo[3,2-c]pyridin-2-yl)-1H-pyrazolo[4,3-b]pyridine] | – | 43.5 | 33.6 |
| 4410 | > 10000 | – | Fc1cccc(-c2nccc3[nH]c(-c4n[nH]c5ccc(-c6cncc(OCc7ccccc7)c6)nc45)cc23)c1 [Compound 518, 5-(5-(Benzyloxy)pyridin-3-yl)-3-(4-(3-fluorophenyl)-1H-pyrrolo[3,2-c]pyridin-2-yl)-1H-pyrazolo[4,3-b]pyridine] | – | 27.5 | – |
| > 10000 | > 10000 | – | CN1CCN(c2nccc3[nH]c(-c4n[nH]c5ccc(-c6cncc(NC(=O)CC7CCNCC7)c6)nc45)cc23)CC1 [Compound 641, N-(5-(3-(4-(4-Methylpiperazin-1l-yl)-1H-pyrrolo[3,2-c]pyridin-2-yl)-1H-pyrazolo[4,3-b]pyridin-5-yl)pyridin-3-yl)-2-(piperidin-4-yl)acetamide] | – | 20.6 | 2.1 |
